Results from publication PMC11322472, “Enhancing [^177Lu]Lu-DOTA-TATE therapeutic efficacy in vitro by combining it with metronomic chemotherapeutics” (EJNMMI Research, 2024).
Values after ≈ are worked out from the molar mass of the structure shown. Where two headings read alike, the source gives them in different places. Each block holds one compound with its values, some of them ahead of it.

Tests used:
[1] = tested on: U2OS + SSTR2A cells; experiment: X-ray radiotherapy viability post chemotherapeutics; type: cell-based, human; details: 24 h 2 mM HU, 4 ng/mL GEM, 200 ng/mL TRI, X-ray 0, 2 and 4 Gy, N = 3 (Figure S7)
Method: (§1) Cells where then treated with chemotherapeutics for 24 hours at 2 mM HU, 4 ng/mL GEM and 200 ng/mL TRI. Following chemotherapeutics, media was refreshed, and cells were X-ray irradiated at 0 (sham-irradiated), 2 and 4 Gy using the image-guided small animal radiotherapy system, SmART+, X-ray irradiator (Precision X-ray Irradiation). The calibrated dose-rate was 6.1796 Gy.min^-1; the X-ray beam used for treatment was set at a voltage of 225 kV, a current of 20 mA and passed through a 0.3 mm Cu filter. Viability analyses were then carried out as above.

[2] = tested on: U2OS cells; experiment: as above; type: cell-based, human; details: 24 h 2 mM HU, 4 ng/mL GEM, 200 ng/mL TRI, X-ray 0, 2 and 4 Gy, N = 3 (Figure S7)
Method: as §1

[3] = tested on: U2OS + SSTR2A cells; experiment: Viability after chemotherapeutic agents (GI50, MTT); type: cell-based; details: Homo sapiens, 24 h treatment, further 5 days growth, from fitted curves, N = 3
Method: (§2) U2OS/U2OS + SSTR2A and BON1/BON1 + SSTR2A cells were seeded in 96-well plates at 2 × 10^3 and 4 × 10^3 cells/well, respectively, and allowed to adhere overnight in the incubator. Cells were then treated with a range of hydroxyurea, gemcitabine, and triapine concentrations for 24 h. Hydroxyurea in U2OS/U2OS + SSTR2A cells was used at 152 µg/mL for 24 h. Chemotherapeutics were then removed, and cells washed with PBS prior to returning to the incubator in fresh medium. Cells were then grown for a further 5 days post-chemotherapeutics prior to assessing metabolic viability, as described above. Chemotherapeutic concentrations needed to inhibit population growth by 50% (GI50) were then calculated.

[4] = tested on: BON1 cells; type: cell-based, human; details: parental BON1 cells; label = chemotherapeutic pre-treatment; MTT at day 7, N = 3
Method: (§3) Excess MTT was then removed. Formazan crystals were dissolved with 50 μL/well in dimethylsulfoxide (DMSO) for 2 min at room temperature (RT) under gentle agitation. Well absorbance at 570 nm was then measured on a UV/V is absorbance microplate reader (SPECTROstar® Nano, BMG LABTECH). Metabolic viability, following signal-to-background correction, was calculated as the percentage signal in treated cells normalised to the signal in untreated cells.

[5] = tested on: U2OS cells; type: cell-based, human; details: parental U2OS cells; label = chemotherapeutic pre-treatment; MTT at day 7, N = 3
Method: as §3

[6] = tested on: BON1 + SSTR2A cells; experiment: Viability after chemotherapeutic agents (GI50, MTT); type: cell-based, human; details: 24 h treatment, further 5 days growth, from fitted curves
Method: as §2

[7] = tested on: U2OS cells; experiment: [^177Lu]Lu-DOTA-TATE uptake; type: cell-based, human; details: U2OS parental cells, 24-hour incubation, 25 nM DOTA-TATE, 0.74–1.03 MBq, mean ± SD, N = 3–4
Method: (§5) 1.5 × 10^5 U2OS/U2OS + SSTR2A or 2 × 10^5 BON1/BON1 + SSTR2A cells were seeded into 6-well plates in medium and allowed to adhere overnight in the incubator. The following day, 0.70–0.93 MBq (U2OS/U2OS + SSTR2A) or 0.75–1.03 MBq (BON1/BON1 + SSTR2A) [^177Lu]Lu-DOTA-TATE was added to wells (25 nM total DOTA-TATE) and incubated for 24 h. Excess [^177Lu]Lu-DOTA-TATE was then removed from wells and pooled together with two PBS washes (“Unbound” fraction). Cell-associated activity was harvested from wells by lysing cells with 0.5 M NaOH solution and pooled with a subsequent PBS wash (“Bound” fraction). Data was presented as percentage added activity (%AA) and activity per cell (Bq/cell).

[8] = tested on: BON1 + SSTR2A cells; experiment: [^177Lu]Lu-DOTA-TATE uptake; type: cell-based, human; details: 24-hour incubation, 25 nM DOTA-TATE, 0.74–1.03 MBq, mean ± SD, N = 3–4
Method: as §5
1.5 × 10^5 U2OS/U2OS + SSTR2A or 2 × 10^5 BON1/BON1 + SSTR2A cells were seeded into 6-well plates in DMEM-HG or DMEM/F-12 medium, respectively, and allowed to adhere overnight in the incubator. Cells where then treated with chemotherapeutics for 24 h at the following concentrations: 152 µg/mL hydroxyurea, 4 ng/mL gemcitabine, and 200 ng/mL triapine for U2OS/U2OS + SSTR2A cells; and 152 µg/mL hydroxyurea, 2 ng/mL gemcitabine, and 100 ng/mL triapine for BON1/BON1 + SSTR2A cells. Following a 4 h recovery period after chemotherapeutics, medium was replaced with 1 mL of medium containing [^177Lu]Lu-DOTA-TATE for 24 h at 0.7–0.93 MBq for U2OS/U2OS + SSTR2A cells or 0.75–1.03 MBq for BON1/BON1 + SSTR2A cells. […]

[9] = tested on: BON1 cells; experiment: [^177Lu]Lu-DOTA-TATE uptake; type: cell-based, human; details: BON1 parental cells, 24-hour incubation, 25 nM DOTA-TATE, 0.74–1.03 MBq, mean ± SD, N = 3–4
Method: as §5

[10] = tested on: BON1 + SSTR2A cells; experiment: Subcellular localisation of [^177Lu]Lu-DOTA-TATE; details: no chemotherapeutic (Untreated), 24 h, 25 nM, mean ± SD, N = 3
Method: (§6) Subcellular localisation of [^177Lu]Lu-DOTA-TATE in cells followed the protocol for the uptake assays above, except that, following removal of excess [^177Lu]Lu-DOTA-TATE, cells were incubated with ice-cold 0.1 M glycine (pH 2.5) for 10 min prior to pooling with a further PBS wash (“Membrane” fraction). Cells were then detached with Accutase and diluted in medium prior to pelleting and transferring the supernatant to the “Cytoplasm” fraction. The cell pellet was resuspended in ice-cold cell lysis buffer (25 mM KCl, 5 mM MgCl2, 10 mM Tris-HCl, and 0.5% v/v IGEPAL CA-630) and incubated for 15 min. Intact nuclei were pelleted and separated from lysed cells by centrifugation (10,000 g, 3 min) and the supernatant removed and combined with the previous portion of the “Cytoplasm” fraction. Pelleted nuclei were resuspended in phosphate-buffered saline (PBS) and transferred to tubes to gamma counting (“Nuclear” fraction). The percentage distribution of [^177Lu]Lu-DOTA-TATE in cells was then calculated for the membrane, cytoplasm, and nucleus.

[11] = tested on: U2OS + SSTR2A cells; experiment: [^177Lu]Lu-DOTA-TATE uptake (with or without chemotherapeutic pre-treatment); details: 25 nM DOTA-TATE, mean ± SD
Method: as §5
1.5 × 10^5 U2OS/U2OS + SSTR2A or 2 × 10^5 BON1/BON1 + SSTR2A cells were seeded into 6-well plates in DMEM-HG or DMEM/F-12 medium, respectively, and allowed to adhere overnight in the incubator. Cells where then treated with chemotherapeutics for 24 h at the following concentrations: 152 µg/mL hydroxyurea, 4 ng/mL gemcitabine, and 200 ng/mL triapine for U2OS/U2OS + SSTR2A cells; and 152 µg/mL hydroxyurea, 2 ng/mL gemcitabine, and 100 ng/mL triapine for BON1/BON1 + SSTR2A cells. Following a 4 h recovery period after chemotherapeutics, medium was replaced with 1 mL of medium containing [^177Lu]Lu-DOTA-TATE for 24 h at 0.7–0.93 MBq for U2OS/U2OS + SSTR2A cells or 0.75–1.03 MBq for BON1/BON1 + SSTR2A cells. […] Uptake and viability studies were then carried out as above.

[12] = tested on: U2OS + SSTR2A cells; experiment: Subcellular localisation of [^177Lu]Lu-DOTA-TATE; details: no chemotherapeutic (Untreated), 24 h, 25 nM, mean ± SD, N = 3
Method: as §6

[13] = tested on: U2OS + SSTR2A cells; experiment: [^177Lu]LuCl3 uptake; type: cell-based, human; details: 0.97 MBq, 24-hour incubation, N = 3 (Figure S3)
Method: (§4) The following day, 0.97 MBq [^177Lu]LuCl3 was added to wells and incubated for 24 hours. […] Data is presented as both percentage uptake of total added activity and normalised as Bq/cell uptake.

[14] = tested on: U2OS cells; experiment: [^177Lu]LuCl3 uptake; type: cell-based, human; details: 0.97 MBq, 24-hour incubation, N = 3 (Figure S3)
Method: as §4

[15] = tested on: U2OS + SSTR2A cells; experiment: [^177Lu]LuCl3 and DOTA-TATE viability (MTT); type: cell-based, human; details: MTT after 7 days
Method: 2x10^3 U2OS or U2OS+SSTR2A cells, after treatment for 24 hours with [^177Lu]LuCl3 (0.97 MBq) or DOTA-TATE (25 nM, U2OS+SSTR2A only), were reseeded in technical sextuplet wells in 96-well plates containing a final media volume of 180 µL/well. Dedicated wells with no cells present served as background signal controls. Plates were placed in the incubator and cells allowed to adhere and grow for 7 days. After 7 days, DMEM-HG was aspirated and replaced with 90 µL of basal DMEM-HG containing 0.5 mg/mL MTT. Plates were returned to the incubator for 4 h prior to aspiration of excess MTT. Formazan crystals were then dissolved with 50 µL/well DMSO for 2 minutes at RT under gentle agitation. Well absorbance at 570 nm wavelength was then immediately measured on a UV/Vis absorbance microplate reader (SPECTROstar® Nano, BMG LABTECH). Metabolic viability, following signal background-correction, was calculated as the percentage of signal normalized to the signal of the respective fully-untreated or chemotherapeutic-alone cells.

[16] = Homo sapiens, N = 3, read-out: GI50

- GI50 [3]: 0.0047 µg/mL (≈ 0.0179 µM)
Compound: Nc1ccn([C@@H]2O[C@H](CO)[C@@H](O)C2(F)F)c(=O)n1 [Gemcitabine, gemcitabine]
- potentiation of X-ray radiation effects by chemotherapeutic pre-treatment (viability) [1]: potentiation of radiation effects was seen
- potentiation of X-ray radiation effects by chemotherapeutic pre-treatment (viability) [2]: potentiation of radiation effects was seen
- Effect on viability of combining chemotherapeutic with [^177Lu]Lu-DOTA-TATE [4]: did not affect viability
- Effect on viability of combining chemotherapeutic with [^177Lu]Lu-DOTA-TATE [5]: did not affect viability
- GI50 [6, 16]: 0.0022 µg/mL (≈ 0.00836 µM)

Compound: NC(=O)NO [Hydroxyurea, hydroxyurea]
- potentiation of X-ray radiation effects by chemotherapeutic pre-treatment (viability) [1]: potentiation of radiation effects was seen
- potentiation of X-ray radiation effects by chemotherapeutic pre-treatment (viability) [2]: potentiation of radiation effects was seen
- Effect on viability of combining chemotherapeutic with [^177Lu]Lu-DOTA-TATE [4]: did not affect viability
- Effect on viability of combining chemotherapeutic with [^177Lu]Lu-DOTA-TATE [5]: did not affect viability
- GI50 ([6]; N = 3): 248.1 (152) µg/mL

- GI50 [3]: 0.12 µg/mL (≈ 0.617 µM)
Compound: NC(=S)N/N=C/c1ncccc1N [Triapine, triapine]
- potentiation of X-ray radiation effects by chemotherapeutic pre-treatment (viability) [1]: potentiation of radiation effects was seen
- potentiation of X-ray radiation effects by chemotherapeutic pre-treatment (viability) [2]: potentiation of radiation effects was seen
- Effect on viability of combining chemotherapeutic with [^177Lu]Lu-DOTA-TATE [4]: did not affect viability
- Effect on viability of combining chemotherapeutic with [^177Lu]Lu-DOTA-TATE [5]: did not affect viability
- GI50 [6, 16]: 0.327 µg/mL (≈ 1.67 µM)

Compound: C[C@@H](O)[C@H](NC(=O)[C@@H]1CSSC[C@H](NC(=O)[C@@H](Cc2ccccc2)NC(=O)CN2CCN(CC(=O)O)CCN(CC(=O)O)CCN(CC(=O)O)CC2)C(=O)N[C@@H](Cc2ccc(O)cc2)C(=O)N[C@H](Cc2c[nH]c3ccccc23)C(=O)N[C@@H](CCCCN)C(=O)N[C@@H]([C@@H](C)O)C(=O)N1)C(=O)O [[^177Lu]Lu-DOTA-TATE, [^177Lu]Lu-[DOTA^0-Tyr^3]octreotate, metal not drawn]
- Uptake (mBq/cell) [7]: 4.4 ± 1.0 mBq/cell
- Uptake (%AA) ([7]; percentage added activity): 0.3 ± 0.0 %AA
- Uptake (mBq/cell) [8]: 111.2 ± 16.5 mBq/cell
- Uptake (%AA) ([8]; percentage added activity): 9.6 ± 0.6 %AA
- Uptake (mBq/cell) [9]: 6.5 ± 6.3 mBq/cell
- Uptake (%AA) ([9]; percentage added activity): 0.5 ± 0.3 %AA
- Cytoplasm (%) of total uptake of [^177Lu]Lu-DOTA-TATE [10]: 90.2 ± 1.7%
- Membrane (%) of total uptake of [^177Lu]Lu-DOTA-TATE [10]: 7.3 ± 1.0%
- Nucleus (%) of total uptake of [^177Lu]Lu-DOTA-TATE [10]: 2.5 ± 0.7%
- Uptake (mBq/cell) ([11]; U2OS + SSTR2A cells, 24-hour incubation, 0.74–1.03 MBq, N = 3–4): 216.9 ± 47.4 mBq/cell
- Uptake (%AA) ([11]; U2OS + SSTR2A cells, 24-hour incubation, 0.74–1.03 MBq, percentage added activity, N = 3–4): 17.8 ± 2.4 %AA
- Internalized quantities of [^177Lu]Lu-DOTA-TATE ([11]; untreated (no chemotherapeutic) U2OS + SSTR2A cells, 24 h, 0.7–1.03 MBq): 0.2 ± 0.05 Bq/cell
- Cytoplasm (%) of total uptake of [^177Lu]Lu-DOTA-TATE [12]: 93.5 ± 0.9%
- Membrane (%) of total uptake of [^177Lu]Lu-DOTA-TATE [12]: 4.1 ± 0.6%
- Nucleus (%) of total uptake of [^177Lu]Lu-DOTA-TATE [12]: 2.3 ± 0.4%

Compound: [177Lu+3].[Cl-].[Cl-].[Cl-] [[^177Lu]LuCl3]
- Uptake of unchelated [^177Lu]LuCl3 [13]: low
- Uptake of unchelated [^177Lu]LuCl3 [14]: low
- metabolic viability after [^177Lu]LuCl3 ([15]; SSTR2A-expressing cells, 0.97 MBq for 24 hours, N = 3 (Figure S4)): only minor reductions in metabolic viability

Compound: DOTA-TATE
- metabolic viability after non-radioactive DOTA-TATE ([15]; U2OS + SSTR2A cells, 25 nM for 24 h, N = 4 (Figure S5)): did not reduce metabolic viability
